Source: article PMC9874818 (Archiv Der Pharmazie, 2022)
Starred links: 1 amine or outer side, 2 acyl side, 3 side chain; linkers in the order of their positions; H or OH if unused. Residues, ends and D or L forms follow the SMILES beside them. CO = O=C([*:1])[*:2]

Tested on: SARS‐CoV‐2 spike (delta/omicron variant) pseudotyped particle
Assay: microbe, parasite or virus in culture
Assay type: cell-based
Details: for EC50: Severe acute respiratory syndrome coronavirus 2, A549-hACE2-TMPRSS2, read-out: EC50 SARS-CoV-2 entry inhibition
[1] = Severe acute respiratory syndrome coronavirus 2, A549-hACE2-TMPRSS2, read-out: SARS-CoV-2 viral entry inhibition

Which EC50 does the source give for `CN1C2CCC1CC(OC(c1ccc(F)cc1)c1ccc(F)cc1)C2` (stereo not shown) [AHN 1‐055, difluorobenztropine] here?
The EC50 was > 50 µM.

How did the EC50 turn out when `CN(C)C(=O)COC(=O)Cc1ccc(OC(=O)c2ccc(NC(=N)N)cc2)cc1` [camostat] was run?
Its EC50 is 0.98 µM.

And the inhibition at 50 µM [1]?
The inhibition at 50 µM was 97%.

For `CC(C)[C@H](NC(=O)[C@H](CCCNC(=N)N)NC(=O)N[C@@H](Cc1ccccc1)C(=O)O)C(=O)N[C@H](C=O)CCCNC(=N)N` [antipain, L‐Phe‐CO‐L‐Arg‐L‐Val‐L‐Arg‐H] ({Phe-CO}-Arg-Val-Arg-aldehyde), which inhibition at 100 µM [1] is on record?
Its inhibition at 100 µM is 81%.
